Measurements taken from PMC12040169 (PLOS Biology, 2025).
Values joined by “and” are separate entries in the source; they are usually repeats but may differ in a detail not shown here. Equal entries are not always repeated.

Key:
[1] = tested on: T1, C. trachomatis L2/434/Bu expressing GFP (CTL2-GFP); test: microbe, parasite or virus in culture; set-up: C. trachomatis total inclusion area by high-content imaging, normalised to DMSO; conditions: Chlamydia trachomatis, HeLa, 28.5 h; total inclusion area; read-out: % of control remaining
T1 construct: L2/434/Bu GFP intracellular growth in HeLa cells
Method in brief: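 First, bulk GFP and resorufin signals were measured in compound-treated infected cultures. Cells were next fixed and stained with Hoechst. Finally, high-content imaging quantified chlamydial inclusions (area, number) and host nuclei, and MICs were calculated.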

[2] = tested on: T2, CTL2-GFP (C. trachomatis L2/434/Bu, GFP-expressing); test: microbe, parasite or virus in culture; set-up: Intracellular C. trachomatis growth in HeLa cells, bulk GFP fluorescence relative to DMSO; conditions: Chlamydia trachomatis, HeLa, 28.5 h; bulk GFP, mean of 2; read-out: % of control remaining
T2 construct: L2/434/Bu, GFP-expressing
Method: MICs were calculated as described above.

in vitro [3] = test: in vitro; set-up: Viability of infected HeLa host cells, resazurin conversion, bulk resorufin fluorescence relative to DMSO; conditions: human, hela cells; bulk resorufin, mean of 2
in vitro [4] = conditions: human, hela cells, % viability
HeLa = conditions: bulk resorufin, single well, 28.5 h, 10 µM, Bulk resorufin fluorescence

O=C1C(NCCO)=C(Nc2cccc(Cl)c2)C(=O)c2ccccc21 [CBK264323]
activity at 1 µM [1]: 90.7% | activity at 5 µM [1]: 34.6% | activity at 10 µM [1]: 14.8% | activity at 1 µM [2]: 93% | activity at 5 µM [2]: 48.6% | activity at 10 µM [2]: 35.5% | viability at 28.5 h, 1 µM (in vitro [3]): 102% | viability at 28.5 h, 5 µM (in vitro [3]): 98.6% | viability at 28.5 h, 10 µM (in vitro [3]): 88.4% | viability at 28.5 h, 10 µM (in vitro [4]): 91.7%

Cc1ccc(S(=O)(=O)Nc2cc(SCC(=O)O)c(O)c3ccccc23)cc1 [CBK265708]
activity at 1 µM [1]: 75.1% | activity at 5 µM [1]: 34.7% | activity at 10 µM [1]: 13.4% | activity at 1 µM [2]: 92.1% | activity at 5 µM [2]: 51.3% | activity at 10 µM [2]: 33% | viability at 28.5 h, 1 µM (in vitro [3]): 103% | viability at 28.5 h, 5 µM (in vitro [3]): 99.6% | viability at 28.5 h, 10 µM (in vitro [3]): 97.8% | viability at 28.5 h, 10 µM (in vitro [4]): 87.1%

O=C(CSc1nc(O)c(Cc2ccccc2)c(=O)[nH]1)Nc1ccc([N+](=O)[O-])cc1 [CBK265887]
% viability (HeLa): 88% and 113%

CCN(CC)CCNc1nc(-c2cccc(Cl)c2)nc2ccccc12 [CBK267265C]
activity at 1 µM [1]: 85% | activity at 5 µM [1]: 45.3% | activity at 10 µM [1]: 26.4% | activity at 1 µM [2]: 108% | activity at 5 µM [2]: 98.1% | activity at 10 µM [2]: 55.5% | viability at 28.5 h, 1 µM (in vitro [3]): 104% | viability at 28.5 h, 5 µM (in vitro [3]): 104% | viability at 28.5 h, 10 µM (in vitro [3]): 108% | viability at 28.5 h, 10 µM (in vitro [4]): 90.7%

Cc1cc(C(=O)Nc2cccc(S(=O)(=O)N3CCOCC3)c2)sc1-c1ccccc1 [CBK268185]
activity at 1 µM [1]: 107% | activity at 5 µM [1]: 82.1% | activity at 10 µM [1]: 51.4% | activity at 1 µM [2]: 102% | activity at 5 µM [2]: 88.9% | activity at 10 µM [2]: 77.7% | viability at 28.5 h, 1 µM (in vitro [3]): 106% | viability at 28.5 h, 5 µM (in vitro [3]): 96.9% | viability at 28.5 h, 10 µM (in vitro [3]): 98.5% | viability at 28.5 h, 10 µM (in vitro [4]): 102%

N=c1c2c(-c3ccccc3)c(-c3ccccc3)n(Cc3ccccc3)c2ncn1CCN1CCOCC1 [CBK268537]
activity at 1 µM [1]: 119% | activity at 5 µM [1]: 66.8% | activity at 10 µM [1]: 34.6% | activity at 1 µM [2]: 123% | activity at 5 µM [2]: 83% | activity at 10 µM [2]: 70.7% | viability at 28.5 h, 1 µM (in vitro [3]): 94.8% | viability at 28.5 h, 5 µM (in vitro [3]): 97.8% | viability at 28.5 h, 10 µM (in vitro [3]): 93.4% | viability at 28.5 h, 10 µM (in vitro [4]): 92%

Cn1cc(C(=O)N2CCc3[nH]c4ccccc4c3C2)cn1 [CBK281875]
% viability (HeLa): 104% and 83.7%

CC[C@@H](Cn1nc(-c2cccs2)ccc1=O)NC(=O)C1CC1 [CBK282309]
% viability (HeLa): 80.2% and 102%

C=CCNC(=O)[C@H]1C=CCN1C(=O)Nc1ccc(F)cc1 [CBK282318]
% viability (HeLa): 82.7% and 110%

CC(C)[C@@H](N)Cn1nc(-c2ccc(F)c(F)c2)ccc1=O [CBK282429]
% viability (HeLa): 83% and 112%

COc1ccc(CN2C(=O)[C@H]3CCCN3C(=O)c3ccccc32)cc1 [CBK282851]
% viability (HeLa): 87.8% and 109%

C[C@H]1CN2C[C@H](O)CC2CN1Cc1ccc(C(F)(F)F)cc1 (stereo partly shown) [CBK285147]
% viability (HeLa): 113% and 89.6%

C[C@H]1CN2C[C@H](O)CC2CN1Cc1ccc(-c2ccccc2Cl)o1 (stereo partly shown) [CBK285418]
% viability (HeLa): 109% and 85.9%

CCC(c1ccc(F)cc1)N(C)C(=O)Cn1cc(C(=O)NC2CCCCC2)ccc1=O (stereo not shown) [CBK286106]
activity at 1 µM [1]: 114% | activity at 5 µM [1]: 27.8% | activity at 10 µM [1]: 2.51% | activity at 1 µM [2]: 128% | activity at 5 µM [2]: 21.7% | activity at 10 µM [2]: 7.58% | viability at 28.5 h, 1 µM (in vitro [3]): 89.5% | viability at 28.5 h, 5 µM (in vitro [3]): 95.3% | viability at 28.5 h, 10 µM (in vitro [3]): 87.5% | viability at 28.5 h, 10 µM (in vitro [4]): 89.8%

CN(C)c1ncc(-c2cccc(Cl)c2)c(C2CCCN2C(=O)CC2CCCC2)n1 (stereo not shown) [CBK286253]
activity at 1 µM [1]: 105% | activity at 5 µM [1]: 82.7% | activity at 10 µM [1]: 44.1% | activity at 1 µM [2]: 135% | activity at 5 µM [2]: 91% | activity at 10 µM [2]: 43.9% | viability at 28.5 h, 1 µM (in vitro [3]): 97.3% | viability at 28.5 h, 5 µM (in vitro [3]): 106% | viability at 28.5 h, 10 µM (in vitro [3]): 110% | viability at 28.5 h, 10 µM (in vitro [4]): 120%

O=C(O)CC1C(=O)NC(=O)N1CCc1ccccc1 (stereo not shown) [CBK287254]
% viability (HeLa): 111% and 85.3%

Cc1ccc2sc(NC(=O)c3ccc(N4C(=O)CCC4=O)cc3)nc2c1C [CBK287587]
% viability (HeLa): 84.7% and 106%

COc1ccc(Nc2nccc(-c3cccnc3)n2)cc1 [CBK288073]
% viability (HeLa): 70.2% and 104%

O=c1c2cnc3ccnn3c2ccn1C1CCCC1 [CBK288074]
activity at 1 µM [1]: 65.5% | activity at 5 µM [1]: 60.4% | activity at 10 µM [1]: 4.02% | activity at 1 µM [2]: 109% | activity at 5 µM [2]: 72.3% | activity at 10 µM [2]: 2.35% | viability at 28.5 h, 1 µM (in vitro [3]): 103% | viability at 28.5 h, 5 µM (in vitro [3]): 106% | viability at 28.5 h, 10 µM (in vitro [3]): 109% | viability at 28.5 h, 10 µM (in vitro [4]): 107%

CC(=O)c1c(C)nc(-c2ccc(Cl)c(Cl)c2)n1O [CBK288525]
% viability (HeLa): 116% and 89.2%

COCC(=O)N[C@H]1C[C@H]2C(=O)Nc3ccc(/C=C/c4ccccc4)cc3C(=O)N2C1 [CBK289366]
activity at 1 µM [1]: 105% | activity at 5 µM [1]: 11.7% | activity at 10 µM [1]: 1.71% | activity at 1 µM [2]: 87.5% | activity at 5 µM [2]: 12% | activity at 10 µM [2]: 2.8% | viability at 28.5 h, 1 µM (in vitro [3]): 93.1% | viability at 28.5 h, 5 µM (in vitro [3]): 96.4% | viability at 28.5 h, 10 µM (in vitro [3]): 98.1% | viability at 28.5 h, 10 µM (in vitro [4]): 90.2%

O=C1CNC(=O)C2(C/C=C/C[C@H]3COCC[C@H]3N1)CCNCC2 [CBK292151]
% viability (HeLa): 82.1% and 104%

Cc1csc(SC(C)C(=O)N2CCc3ccccc32)n1 (stereo not shown) [CBK305909]
activity at 1 µM [1]: 112% | activity at 5 µM [1]: 49.8% | activity at 10 µM [1]: 42.5% | activity at 1 µM [2]: 143% | activity at 5 µM [2]: 149% | activity at 10 µM [2]: 132% | viability at 28.5 h, 1 µM (in vitro [3]): 94.1% | viability at 28.5 h, 5 µM (in vitro [3]): 91.9% | viability at 28.5 h, 10 µM (in vitro [3]): 89.5% | viability at 28.5 h, 10 µM (in vitro [4]): 98.8%

COc1cc2c(cc1CNC(=O)c1cn(CCN)nn1)CCC2 [CBK306886]
activity at 1 µM [1]: 176% | activity at 5 µM [1]: 112% | activity at 10 µM [1]: 45.1% | activity at 1 µM [2]: 167% | activity at 5 µM [2]: 109% | activity at 10 µM [2]: 35.5% | viability at 28.5 h, 1 µM (in vitro [3]): 97.3% | viability at 28.5 h, 5 µM (in vitro [3]): 96.7% | viability at 28.5 h, 10 µM (in vitro [3]): 92.4% | viability at 28.5 h, 10 µM (in vitro [4]): 84.7%

Cn1cc(C(NC(=O)c2nc(N)nc3c2CCCC3)[C@H]2C[C@@H](O)C2)cn1 (stereo partly shown) [CBK307535]
% viability (HeLa): 92.2% and 114%
